The results in this text go back to patent publication US12697316B2, “Combination therapy with acetyl-leucine and miglustat” (INTRABIO LTD., priority 2019, dated 2026).

Test [1] has as its system GM2 gangliosidosis patients. Nature of the test: Observational case series in GM2 gangliosidosis patients. As to conditions: three GM2 gangliosidosis patients. The class given is in vivo, human. The protocol: Observational studies in GM2 gangliosidosis Patients: In a prospective observational case series in three patients with genetically proven GM2 gangliosidoses (2 patients with Tay-Sachs disease, 1 patient with Sandhoff disease) the symptomatic effects of ADLL was evaluated. Patients were treated with 0.1 g per kg body weight per day, for at least four weeks and the clinical effects determined using the Scale for the Assessment and Severity of Ataxia (SARA), the 8-meter walk test (8MWT) and the Montreal Cognitive Assessment (MoCA). Consent from all participants was obtained.
A patient with a genetically confirmed diagnosis of Tay-Sachs disease presented with dysarthrophonia, tremor, ataxia of stance and gait, paraparesis, and muscular atrophy. Prior to treatment, the patient required the support of both a caregiver on one side and a wall on the other in order to walk down a corridor. The patient was receiving sodium-valproate (500 mg/d), lithium (450 mg/d), and risperidone (3 mg/d) (medications for clinically diagnosed bipolar disorder), and continued to do so during treatment with N-Acetyl-DL-Leucine. The patient was also receiving physiotherapy, ergotherapy, and logotherapy twice a week.
A patient with a genetically confirmed diagnosis of Tay-Sachs disease presented with ataxia of stance and gait, fine motor impairment, paraparesis of lower extremities and muscular atrophy. They were receiving physiotherapy, ergotherapy and logotherapy and continued to do so during treatment with N-Acetyl-DL-Leucine.
A patient suffering from Sandhoff disease, with muscle hypotrophy, epileptic cramps (tonic-clonic, about 10 seconds, self-limiting), disordered ocular movement and anarthria. Their daily activities were very limited, being unable to eat, wash, or dress themself. They were receiving levetiracetam (1 g/d), lamotrigine (100 mg/d), omeprazole (20 mg/d), and miglustat (300 mg/d), in addition to physiotherapy, ergotherapy and logotherapy, and continued to do so during treatment with N-Acetyl-DL-Leucine.

Test [2] has as its system Sandhoff (Hexb^−/−) mice. Nature of the test: Bar crossing test in Sandhoff (Hexb−/−) mice. The class given is in vivo, mouse. The conditions noted are these: 12 and 13 weeks. The protocol:
BALBc/NPC ^h and Sandhoff mice were bred as heterozygotes to generate affected mice (Npc1^−/−, Hexb^−/−) and controls (Npc^+/+, Hexb^+/+). The mice were housed under non-sterile conditions, with food and water available ad libitum. All experiments were conducted using protocols approved by the UK Home Office Animal Scientific Procedures Act, 1986.
ADLL and enantiomers (ADLL: Molekula #73891210, ALL: Sigma Aldrich #441511, ADL: Sigma #A0876) were administered as dry admix in powdered mouse diet (PicoLab Rodent Diet 20/5053, LabDiet) at a dose of 0.1 g/kg/day for in vivo studies. Treatment groups for in vivo study consisted of at least 5 mice per group. […]
The weight and activity of each mouse was recorded weekly until reaching the humane endpoint (defined as a loss of 1 g body weight within 24 h). Gait analysis was performed using CatWalk 10.5 system (Noldus) according to the manufacturer's instructions and five runs were recorded per animal at each time point. […] Motor function was measured using an accelerating NG Rota Rod for mice (Ugo Basile) starting from 1 rpm to 10 rpm, accelerating every 30 seconds by one rpm. […] Latency to cross or fall from the bar was scored, with 120 sec, maximum, to termination of each trial. […]

Setting [3] is: 0.1 g per kg body weight per day, baseline vs one month on medication.

Structures are written as SMILES.

On to `CC(=O)NC(CC(C)C)C(=O)O` (racemic) [ADLL, N-acetyl-DL-leucine], for which the “improvement reported by patients and caregivers” value in test [1] is listed as “subjective improvement”. Further, in test [1] (setting [3]), the “mean improvement of the 8-M-Walking-Test (8MWT)” value amounted to 17.8%; the “mean improvement of the Montreal Cognitive Assessment (MoCA)” value is listed as 42%; the “mean improvement of the Scale for Assessment and Rating of Ataxia (SARA)” value was 20.3%. Besides, in test [2], the Bar-crossing test performance entry is “significantly improved”.
